From US8192962B2, “Processes for detecting toxic substances” (Daikin Industries, Ltd., priority 2001, dated 2012)

Tested on: Energy system protein genes
Test: DNA chip mRNA expression in yeast, energy system protein genes (Table 4)
Type: cell-based, Saccharomyces cerevisiae S288C
How it was run: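 Expression change after 2 h toxicant exposure (growth-inhibiting, sub-lethal) of log-phase S. cerevisiae S288C at 25° C. Oligo-dT-purified mRNA was labeled with Cy3-dUTP or Cy5-dUTP and hybridized >12 h at 65° C. to a genome-wide chip; ratio of scanned fluorescence to control.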

Compound: Cl[C@H]1[C@H](Cl)[C@@H](Cl)[C@@H](Cl)[C@H](Cl)[C@H]1Cl [(7), γ-hexachlorocyclohexane]
- The level of expressed mRNA in the presence of chemical substance/The level of expressed mRNA in the absence of chemical substance (yeast gene YJR009C): 1.6
- The level of expressed mRNA in the presence of chemical substance/The level of expressed mRNA in the absence of chemical substance (yeast gene YJR048W): 0.3
- The level of expressed mRNA in the presence of chemical substance/The level of expressed mRNA in the absence of chemical substance (yeast gene YJR121W, cells incubated two hours with the chemical substance): 1.0
- The level of expressed mRNA in the presence of chemical substance/The level of expressed mRNA in the absence of chemical substance (yeast gene YJR155W): 1.7
- The level of expressed mRNA in the presence of chemical substance/The level of expressed mRNA in the absence of chemical substance (yeast gene YKL016C, cells incubated two hours with the chemical substance): 1.5
- The level of expressed mRNA in the presence of chemical substance/The level of expressed mRNA in the absence of chemical substance (yeast gene YKL060C, cells incubated two hours with the chemical substance): 1.2
- The level of expressed mRNA in the presence of chemical substance/The level of expressed mRNA in the absence of chemical substance (yeast gene YKL141W, cells incubated two hours with the chemical substance): 0.5
- The level of expressed mRNA in the presence of chemical substance/The level of expressed mRNA in the absence of chemical substance (yeast gene YKL148C, cells incubated two hours with the chemical substance): 0.6
- The level of expressed mRNA in the presence of chemical substance/The level of expressed mRNA in the absence of chemical substance (yeast gene YKR009C, cells incubated two hours with the chemical substance): 1.0
- The level of expressed mRNA in the presence of chemical substance/The level of expressed mRNA in the absence of chemical substance (yeast gene YKR058W, cells incubated two hours with the chemical substance, 25° C., YPD medium): 1.4
- The level of expressed mRNA in the presence of chemical substance/The level of expressed mRNA in the absence of chemical substance (yeast gene YKR097W): 3.7
- The level of expressed mRNA in the presence of chemical substance/The level of expressed mRNA in the absence of chemical substance (yeast gene YLL041C, cells incubated two hours with the chemical substance): 0.3
- The level of expressed mRNA in the presence of chemical substance/The level of expressed mRNA in the absence of chemical substance (yeast gene YLR038C, cells incubated two hours with the chemical substance): 1.0
- The level of expressed mRNA in the presence of chemical substance/The level of expressed mRNA in the absence of chemical substance (yeast gene YLR044C, cells incubated two hours with the chemical substance): 1.3
- The level of expressed mRNA in the presence of chemical substance/The level of expressed mRNA in the absence of chemical substance (yeast gene YLR134W, cells incubated two hours with the chemical substance): 1.1
- The level of expressed mRNA in the presence of chemical substance/The level of expressed mRNA in the absence of chemical substance (yeast gene YLR258W, cells incubated two hours with the chemical substance): 1.8
- The level of expressed mRNA in the presence of chemical substance/The level of expressed mRNA in the absence of chemical substance (yeast gene YLR284C, cells incubated two hours with the chemical substance): 0.8
- The level of expressed mRNA in the presence of chemical substance/The level of expressed mRNA in the absence of chemical substance (yeast gene YLR295C, cells incubated two hours with the chemical substance, 25° C., YPD medium): 1.1
- The level of expressed mRNA in the presence of chemical substance/The level of expressed mRNA in the absence of chemical substance (yeast gene YLR304C, cells incubated two hours with the chemical substance): 0.6
- The level of expressed mRNA in the presence of chemical substance/The level of expressed mRNA in the absence of chemical substance (yeast gene YLR345W): 1.2
- The level of expressed mRNA in the presence of chemical substance/The level of expressed mRNA in the absence of chemical substance (yeast gene YLR354C, cells incubated two hours with the chemical substance): 1.1
- The level of expressed mRNA in the presence of chemical substance/The level of expressed mRNA in the absence of chemical substance (yeast gene YLR377C, cells incubated two hours with the chemical substance): 0.9
- The level of expressed mRNA in the presence of chemical substance/The level of expressed mRNA in the absence of chemical substance (yeast gene YML087C): 1.1
- The level of expressed mRNA in the presence of chemical substance/The level of expressed mRNA in the absence of chemical substance (yeast gene YML120C, cells incubated two hours with the chemical substance): 0.8
- The level of expressed mRNA in the presence of chemical substance/The level of expressed mRNA in the absence of chemical substance (yeast gene YML129C, cells incubated two hours with the chemical substance): 1.8
- The level of expressed mRNA in the presence of chemical substance/The level of expressed mRNA in the absence of chemical substance (yeast gene YMR073C, cells incubated two hours with the chemical substance): 1.0
- The level of expressed mRNA in the presence of chemical substance/The level of expressed mRNA in the absence of chemical substance (yeast gene YMR118C): 1.0
- The level of expressed mRNA in the presence of chemical substance/The level of expressed mRNA in the absence of chemical substance (yeast gene YMR205C, cells incubated two hours with the chemical substance): 0.9
- The level of expressed mRNA in the presence of chemical substance/The level of expressed mRNA in the absence of chemical substance (yeast gene YMR261C, cells incubated two hours with the chemical substance): 1.3
- The level of expressed mRNA in the presence of chemical substance/The level of expressed mRNA in the absence of chemical substance (yeast gene YMR267W, cells incubated two hours with the chemical substance, 25° C., YPD medium): 1.2
- The level of expressed mRNA in the presence of chemical substance/The level of expressed mRNA in the absence of chemical substance (yeast gene YMR323W, cells incubated two hours with the chemical substance): 1.1
- The level of expressed mRNA in the presence of chemical substance/The level of expressed mRNA in the absence of chemical substance (yeast gene YNL071W): 1.4
- The level of expressed mRNA in the presence of chemical substance/The level of expressed mRNA in the absence of chemical substance (yeast gene YNL202W, cells incubated two hours with the chemical substance): 0.9
- The level of expressed mRNA in the presence of chemical substance/The level of expressed mRNA in the absence of chemical substance (yeast gene YNL241C): 3.2
- The level of expressed mRNA in the presence of chemical substance/The level of expressed mRNA in the absence of chemical substance (yeast gene YNL331C): 1.9
- The level of expressed mRNA in the presence of chemical substance/The level of expressed mRNA in the absence of chemical substance (yeast gene YOL086C, cells incubated two hours with the chemical substance): 1.9
- The level of expressed mRNA in the presence of chemical substance/The level of expressed mRNA in the absence of chemical substance (yeast gene YOL165C): 1.4
- The level of expressed mRNA in the presence of chemical substance/The level of expressed mRNA in the absence of chemical substance (yeast gene YOR142W, cells incubated two hours with the chemical substance): 1.0
- The level of expressed mRNA in the presence of chemical substance/The level of expressed mRNA in the absence of chemical substance (yeast gene YOR178C, cells incubated two hours with the chemical substance): 0.9
- The level of expressed mRNA in the presence of chemical substance/The level of expressed mRNA in the absence of chemical substance (yeast gene YOR388C, cells incubated two hours with the chemical substance): 1.0
- The level of expressed mRNA in the presence of chemical substance/The level of expressed mRNA in the absence of chemical substance (yeast gene YPL031C, cells incubated two hours with the chemical substance): 1.6
- The level of expressed mRNA in the presence of chemical substance/The level of expressed mRNA in the absence of chemical substance (yeast gene YPL061W, cells incubated two hours with the chemical substance): 0.5
- The level of expressed mRNA in the presence of chemical substance/The level of expressed mRNA in the absence of chemical substance (yeast gene YPL088W): 3.7
- The level of expressed mRNA in the presence of chemical substance/The level of expressed mRNA in the absence of chemical substance (yeast gene YPL171C): 1.7
- The level of expressed mRNA in the presence of chemical substance/The level of expressed mRNA in the absence of chemical substance (yeast gene YPL240C): 1.4
- The level of expressed mRNA in the presence of chemical substance/The level of expressed mRNA in the absence of chemical substance (yeast gene YPL262W, cells incubated two hours with the chemical substance): 1.3
- The level of expressed mRNA in the presence of chemical substance/The level of expressed mRNA in the absence of chemical substance (yeast gene YPL275W, cells incubated two hours with the chemical substance): 1.1
- The level of expressed mRNA in the presence of chemical substance/The level of expressed mRNA in the absence of chemical substance (yeast gene YPL276W, cells incubated two hours with the chemical substance): 1.2
- The level of expressed mRNA in the presence of chemical substance/The level of expressed mRNA in the absence of chemical substance (yeast gene YPR048W, cells incubated two hours with the chemical substance): 0.9
- The level of expressed mRNA in the presence of chemical substance/The level of expressed mRNA in the absence of chemical substance (yeast gene YPR184W, cells incubated two hours with the chemical substance): 1.3
